Assay results published in patent US20100298141A1, “SUBSTITUTED PYRIDINE N-OXIDE HERBICIDES” (E. I. DU PONT DE NEMOURS AND COMPANY, priority 2007, published 2010).

Tests used:
giant foxtail = assay: Test A pre-/postemergence greenhouse test; assay type: in vivo, Setaria faberi; details: for Foxtail, Giant plant response rating: 0 to 100 scale; for Plant response rating, Foxtail, Giant: 0 to 100 scale where 0 is no effect and 100 is complete control
How it was run: (§1)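 Herbicidal effect is a visual injury score given about ten days post-treatment by comparison with untreated controls. Preemergence plots received a directed spray onto sown loam–sand soil; postemergence plants, at the one- to two-leaf stage and 2–10 cm tall, were sprayed at the same time.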

soybean = assay: Test C pre-/postemergence test; assay type: in vivo, Glycine max; details: Preemergence; for Soybean plant response rating: 62 g ai/ha, scale 0 to 100; for Plant response rating, Soybean: 31 g ai/ha, scale 0 to 100 (0 no effect, 100 complete control)
How it was run: (§2)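 Test chemicals were formulated with surfactant in a non-phytotoxic solvent and sprayed both on freshly planted seeds (preemergence) and on 1- to 4-leaf plants of 2–18 cm (postemergence). Flooded-paddy pots received compound directly into 3 cm of standing water, maintained for the test.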

yellow nutsedge = assay: Test C pre-/postemergence test; assay type: in vivo, Cyperus esculentus; details: Preemergence; for Nutsedge, Yellow plant response rating: 62 g ai/ha, scale 0 to 100; for Plant response rating, Nutsedge, Yellow: 31 g ai/ha, scale 0 to 100 (0 no effect, 100 complete control)
How it was run: as §2

bermudagrass = assay: Test C pre-/postemergence test; assay type: in vivo, Cynodon dactylon; details: for Plant response rating, Bermudagrass: 31 g ai/ha; for Plant response rating (0 to 100), Bermudagrass: 250 g ai/ha
How it was run: as §2

Goosegrass = assay: Test C pre-/postemergence test; assay type: in vivo, Eleusin indica; details: Preemergence; for Goosegrass plant response rating: 62 g ai/ha, scale 0 to 100; for Plant response rating, Goosegrass: 31 g ai/ha, scale 0 to 100 (0 no effect, 100 complete control); for Plant response rating (0 to 100), Goosegrass: 250 g ai/ha
How it was run: as §2

[1] = test system: common (oilseed) sunflower; assay: Test C pre-/postemergence test; assay type: in vivo, Helianthus annuus; details: Preemergence; for Sunflower plant response rating: 62 g ai/ha, scale 0 to 100; for Plant response rating, Sunflower: 31 g ai/ha, scale 0 to 100 (0 no effect, 100 complete control)
How it was run: as §2

barnyardgrass = assay: Test C flooded paddy test; assay type: in vivo, Echinochloa crus-galli; details: Flood
How it was run: (§3)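 Compound was added to standing water 3 cm above soil, flood maintained, and plants held in a greenhouse before visual scoring against controls at 13 to 15 days.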

wheat [2] = assay: Test C pre-/postemergence test; assay type: in vivo, Triticum aestivum; details: Preemergence; for Wheat plant response rating: 62 g ai/ha, scale 0 to 100; for Plant response rating, Wheat: 31 g ai/ha, scale 0 to 100 (0 no effect, 100 complete control)
How it was run: as §2

catchweed bedstraw = assay: Test C pre-/postemergence test; assay type: in vivo, Galium aparine; details: Preemergence; for Galium plant response rating: 62 g ai/ha, scale 0 to 100; for Plant response rating, Galium: 31 g ai/ha, scale 0 to 100 (0 no effect, 100 complete control); for Plant response rating (0 to 100), Galium: 250 g ai/ha
How it was run: as §2

wheat [3] = assay: Test A pre-/postemergence greenhouse test; assay type: in vivo, Triticum aestivum; details: for Wheat plant response rating: 0 to 100 scale; for Plant response rating, Wheat: 0 to 100 scale where 0 is no effect and 100 is complete control
How it was run: as §1

corn = assay: Test A pre-/postemergence greenhouse test; assay type: in vivo, Zea mays; details: for Corn plant response rating: 0 to 100 scale; for Plant response rating, Corn: 0 to 100 scale where 0 is no effect and 100 is complete control
How it was run: as §1

morningglory [4] = assay: Test C pre-/postemergence test; assay type: in vivo, Ipomoea coccinea; details: Preemergence; for Morningglory plant response rating: 62 g ai/ha, scale 0 to 100; for Plant response rating, Morningglory: 31 g ai/ha, scale 0 to 100 (0 no effect, 100 complete control)
How it was run: as §2

Italian ryegrass = assay: Test C pre-/postemergence test; assay type: in vivo, Lolium multiflorum; details: Preemergence; for Ryegrass, Italian plant response rating: 62 g ai/ha, scale 0 to 100; for Plant response rating, Ryegrass, Italian: 31 g ai/ha, scale 0 to 100 (0 no effect, 100 complete control)
How it was run: as §2

morningglory [5] = assay: Test A pre-/postemergence greenhouse test; assay type: in vivo, Ipomoea spp.; details: for Morningglory plant response rating: 0 to 100 scale; for Plant response rating, Morningglory: 0 to 100 scale where 0 is no effect and 100 is complete control
How it was run: as §1

pigweed = assay: Test C pre-/postemergence test; assay type: in vivo, Amaranthus retroflexus; details: Preemergence; for Pigweed plant response rating: 62 g ai/ha, scale 0 to 100; for Plant response rating, Pigweed: 31 g ai/ha, scale 0 to 100 (0 no effect, 100 complete control)
How it was run: as §2

crabgrass = assay: Test A pre-/postemergence greenhouse test; assay type: in vivo, Digitaria sanguinalis; details: for Crabgrass, Large plant response rating: 0 to 100 scale; for Plant response rating, Crabgrass, Large: 0 to 100 scale where 0 is no effect and 100 is complete control
How it was run: as §1

umbrella sedge = assay: Test C flooded paddy test; assay type: in vivo, Cyperus difformis; details: Flood
How it was run: as §3

[6] = Postemergence, 125 g ai/ha, 0 is no effect, 100 is complete control
[7] = Postemergence, 500 g ai/ha, 0 is no effect, 100 is complete control
[8] = Preemergence, 125 g ai/ha, 0 no effect, 100 complete control
[9] = 62 g ai/ha, Preemergence, scale 0 to 100 (0 no effect, 100 complete control)
[10] = Preemergence, scale 0 to 100 (0 no effect, 100 complete control)
[11] = preemergence, 125 g ai/ha, scale 0 (no effect) to 100 (complete control)
[12] = 31 g ai/ha, scale 0 to 100 (0 no effect, 100 complete control)
[13] = 62 g ai/ha, scale 0 to 100, 0 no effect, 100 complete control, 13 to 15 days
[14] = 125 g ai/ha, scale 0 to 100, 0 no effect, 100 complete control, 13 to 15 days
[15] = 250 g ai/ha, scale 0 to 100 (0 no effect, 100 complete control)
[16] = 250 g ai/ha, scale 0 to 100, 0 no effect, 100 complete control, 13 to 15 days

## Cc1cc[n+]([O-])c(S(=O)(=O)C(Cl)c2c(C(F)(F)F)nn(C)c2Cl)c1 (racemic) [Compound 22]
Giant foxtail; [6]
  Foxtail, Giant plant response rating: 50
Giant foxtail; [7]
  Foxtail, Giant plant response rating: 80
Giant foxtail; [8]
  Foxtail, Giant plant response rating: 100
Giant foxtail; Preemergence, 500 g ai/ha
  Plant response rating, Foxtail, Giant: 100
soybean
  Soybean plant response rating: 0
  Plant response rating, Soybean: 0
Yellow nutsedge
  Nutsedge, Yellow plant response rating: 60
  Plant response rating, Nutsedge, Yellow: 50
bermudagrass; [9]
  Bermudagrass plant response rating: 100
bermudagrass; [10]
  Plant response rating, Bermudagrass: 70
bermudagrass; Preemergence
  Plant response rating (0 to 100), Bermudagrass: 100
bermudagrass; [11]
  Bermudagrass plant response rating: 100
Goosegrass
  Goosegrass plant response rating: 100
  Plant response rating, Goosegrass: 100
  Plant response rating (0 to 100), Goosegrass: 100
[1]
  Sunflower plant response rating: 0
  Plant response rating, Sunflower: 0
barnyardgrass; [12]
  Plant response rating, Barnyardgrass: 10
barnyardgrass; [13]
  Plant response rating, Barnyardgrass: 20
barnyardgrass; [14]
  Plant response rating, Barnyardgrass: 80
barnyardgrass; [15]
  Plant response rating, Barnyardgrass: 85
Wheat [2]
  Wheat plant response rating: 0
  Plant response rating, Wheat: 0
Catchweed bedstraw
  Galium plant response rating: 100
  Plant response rating, Galium: 95
  Plant response rating (0 to 100), Galium: 100
Wheat [3]; [6]
  Wheat plant response rating: 0
Wheat [3]; [7]
  Wheat plant response rating: 40
Wheat [3]; [8]
  Wheat plant response rating: 20
Wheat [3]; Preemergence, 500 g ai/ha
  Plant response rating, Wheat: 50
corn; [6]
  Corn plant response rating: 0
corn; [7]
  Corn plant response rating: 30
corn; [8]
  Corn plant response rating: 0
corn; Preemergence, 500 g ai/ha
  Plant response rating, Corn: 20
Morningglory [4]
  Morningglory plant response rating: 0
  Plant response rating, Morningglory: 0
Italian ryegrass
  Ryegrass, Italian plant response rating: 40
  Plant response rating, Ryegrass, Italian: 0
Morningglory [5]; [6]
  Morningglory plant response rating: 20
Morningglory [5]; [7]
  Morningglory plant response rating: 40
Morningglory [5]; [8]
  Morningglory plant response rating: 70
Morningglory [5]; Preemergence, 500 g ai/ha
  Plant response rating, Morningglory: 90
pigweed
  Pigweed plant response rating: 100
  Plant response rating, Pigweed: 100
crabgrass; [6]
  Crabgrass, Large plant response rating: 40
crabgrass; [7]
  Crabgrass, Large plant response rating: 80
crabgrass; [8]
  Crabgrass, Large plant response rating: 90
crabgrass; Preemergence, 500 g ai/ha
  Plant response rating, Crabgrass, Large: 90
Umbrella sedge; [12]
  Plant response rating, Sedge, Umbrella: 60
Umbrella sedge; [13]
  Plant response rating, Sedge, Umbrella: 85
Umbrella sedge; [14]
  Plant response rating, Sedge, Umbrella: 95
Umbrella sedge; [16]
  Plant response rating, Sedge, Umbrella: 95

## Cn1nc(C(F)(F)F)c(C[S+]([O-])c2cc(C(C)(C)C)cc[n+]2[O-])c1OC(F)F (racemic) [Compound 24]
Giant foxtail; [6]
  Foxtail, Giant plant response rating: 30
Giant foxtail; [7]
  Foxtail, Giant plant response rating: 70
Giant foxtail; [8]
  Foxtail, Giant plant response rating: 100
Giant foxtail; Preemergence, 500 g ai/ha
  Plant response rating, Foxtail, Giant: 100
soybean
  Soybean plant response rating: 85
  Plant response rating, Soybean: 0
Yellow nutsedge
  Nutsedge, Yellow plant response rating: 70
  Plant response rating, Nutsedge, Yellow: 0
bermudagrass; [9]
  Bermudagrass plant response rating: 85
bermudagrass; [10]
  Plant response rating, Bermudagrass: 75
bermudagrass; Preemergence
  Plant response rating (0 to 100), Bermudagrass: 100
bermudagrass; [11]
  Bermudagrass plant response rating: 100
Goosegrass
  Goosegrass plant response rating: 100
  Plant response rating, Goosegrass: 85
  Plant response rating (0 to 100), Goosegrass: 100
[1]
  Sunflower plant response rating: 0
  Plant response rating, Sunflower: 0
barnyardgrass; [12]
  Plant response rating, Barnyardgrass: 0
barnyardgrass; [13]
  Plant response rating, Barnyardgrass: 30
barnyardgrass; [14]
  Plant response rating, Barnyardgrass: 30
barnyardgrass; [15]
  Plant response rating, Barnyardgrass: 35
Wheat [2]
  Wheat plant response rating: 40
  Plant response rating, Wheat: 0
Catchweed bedstraw
  Galium plant response rating: 98
  Plant response rating, Galium: 0
  Plant response rating (0 to 100), Galium: 100
Wheat [3]; [6]
  Wheat plant response rating: 0
Wheat [3]; [7]
  Wheat plant response rating: 30
Wheat [3]; [8]
  Wheat plant response rating: 50
Wheat [3]; Preemergence, 500 g ai/ha
  Plant response rating, Wheat: 90
corn; [6]
  Corn plant response rating: 0
corn; [7]
  Corn plant response rating: 40
corn; [8]
  Corn plant response rating: 0
corn; Preemergence, 500 g ai/ha
  Plant response rating, Corn: 40
Morningglory [4]
  Morningglory plant response rating: 80
  Plant response rating, Morningglory: 70
Italian ryegrass
  Ryegrass, Italian plant response rating: 0
  Plant response rating, Ryegrass, Italian: 0
Morningglory [5]; [6]
  Morningglory plant response rating: 40
Morningglory [5]; [7]
  Morningglory plant response rating: 90
Morningglory [5]; [8]
  Morningglory plant response rating: 70
Morningglory [5]; Preemergence, 500 g ai/ha
  Plant response rating, Morningglory: 90
pigweed
  Pigweed plant response rating: 100
  Plant response rating, Pigweed: 100
crabgrass; [6]
  Crabgrass, Large plant response rating: 0
crabgrass; [7]
  Crabgrass, Large plant response rating: 60
crabgrass; [8]
  Crabgrass, Large plant response rating: 90
crabgrass; Preemergence, 500 g ai/ha
  Plant response rating, Crabgrass, Large: 100
Umbrella sedge; [12]
  Plant response rating, Sedge, Umbrella: 60
Umbrella sedge; [13]
  Plant response rating, Sedge, Umbrella: 85
Umbrella sedge; [14]
  Plant response rating, Sedge, Umbrella: 95
Umbrella sedge; [16]
  Plant response rating, Sedge, Umbrella: 95
